Measurements published in US8309685B2 (Celgene Avilomics Research, Inc., priority 2007, dated 2012).
pIC50: −log10 of the molar value. Like-named read-outs stand apart in the source and are kept apart here.

Tests used:
[1] = molecular target: T1, A156T mutant of the HCV NS3/4A 1b protease enzyme (Hepatitis C virus genotype 1b, UniProt P26663, A1182T); test: HCV Protease FRET Assay (IC50), A156T mutant; format: biochemical; conditions: read-out: Inhibition, HCV A156T; A156T enzyme, FRET assay
T1 construct: 10× stocks of NS3/4A protease enzyme from Bioenza (Mountain View, Calif.); purchased Bioenza (Mountain View, Calif.)
Procedure: HCV Protease FRET Assay for Wild Type and Mutated NS3/4A 1b Enzymes (IC50)
The protocol is a modified FRET-based assay (v—02) from In Vitro Resistance Studies of HCV Serine Protease Inhibitors, 2004, JBC, vol. 279, No. 17, pp 17508-17514.
10× stocks of NS3/4A protease enzyme from Bioenza (Mountain View, Calif.) and 1.13× 5-FAM/QXL™ 520 FRET peptide substrate from Anaspec (San Jose, Calif.) were prepared in 50 mM HEPES, pH 7.8, 100 mM NaCl, 5 mM DTT and 20% glycerol. 5 μL of each enzyme were pre-incubated in a Corning (#3573) 384-well, black, non-treated microtiter plate (Corning, N.Y.) for 30 min at 25° C. with a 0.5 μL volume of 50% DMSO and serially diluted compounds prepared in 50% DMSO. Protease reactions were started with the addition of 45 μL of the FRET substrate and monitored for 120 minutes at λex487/λem514 through Quad^4 monochromoters in a Synergy^4 plate reader from BioTek (Winooski, Vt.). At the conclusion of each assay, progress curves from each well were examined for linear reaction kinetics and fit statistics (R^2, absolute sum of squares). Initial velocity (0 minutes to 30+ minutes) from each reaction was determined from the slope of a plot of relative fluorescence units vs time (minutes) and then plotted against inhibitor concentration to estimate IC50 from log[Inhibitor] vs Response, Variable Slope model in GraphPad Prism from GraphPad Software (San Diego, Calif.).
The compound numbers correspond to the compound numbers in Table 3. […] ;

[2] = test system: HCV RNA replicon in cell line ET (luc-ubi-neo/ET), human Huh7 hepatoma; test: Method A: HCV RNA replicon antiviral assay (luciferase, ET cell line); format: cell-based, Hepatitis C virus; conditions: Hepatitis C virus, Huh-7
Method in brief: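 Six 3-fold dilutions of each drug were tested on subconfluent luc-ubi-neo/ET Huh7 replicon cells (5×10^3/well) for 72 hr at 37 °C. EC50 and EC90 came from luciferase read-out, IC50 from CytoTox-1 cell number, and […]; interferon alpha-2b was run each time as control.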

[3] = molecular target: T1, A156T mutant of the HCV NS3/4A 1b protease enzyme; test: HCV Protease FRET Assay (IC50_APP), A156T mutant; format: biochemical; conditions: apparent IC50, A156T mutant; read-out: IC50_APP, HCV A156T
[4] = molecular target: T2, D168A mutant of the HCV NS3/4A 1b protease enzyme (Hepatitis C virus genotype 1b, UniProt P26663, D1194A); test: HCV Protease FRET Assay (IC50_APP), D168A mutant; format: biochemical; conditions: apparent IC50, D168A mutant; read-out: IC50_APP, HCV D168A
T2 construct: 10× stocks of NS3/4A protease enzyme from Bioenza (Mountain View, Calif.); purchased Bioenza (Mountain View, Calif.)

[5] = molecular target: T3, wild type HCV NS3/4A 1b protease enzyme (Hepatitis C virus genotype 1b, UniProt P26663); test: HCV Protease FRET Assay (IC50_APP), wild type; format: biochemical; conditions: read-out: IC50_APP, WT; apparent IC50, wild type NS3/4A 1b
T3 construct: 10× stocks of NS3/4A protease enzyme from Bioenza (Mountain View, Calif.); purchased Bioenza (Mountain View, Calif.)

[6] = molecular target: T2, D168A mutant of the HCV NS3/4A 1b protease enzyme; test: HCV Protease FRET Assay (IC50), D168A mutant; format: biochemical; conditions: read-out: Inhibition, HCV D168A; D168A enzyme, FRET assay
[7] = molecular target: T3, wild type HCV NS3/4A 1b protease enzyme; test: biochemical; format: biochemical; conditions: read-out: Inhibition, WT; WT enzyme, FRET assay
[8] = test system: cell line ET (luc-ubi-neo/ET), human Huh7 hepatoma cell line; test: Method A: cytotoxicity in ET replicon cells (CytoTox-1); format: cell-based; conditions: concentration decreasing cell viability by 50%, 72 hr
Procedure: The compounds were assayed to evaluate the antiviral activity and cytotoxicity of compounds in vitro using HCV RNA replicons. This assay used the cell line ET (luc-ubi-neo/ET), which is a human Huh7 hepatoma cell line that contains an HCV RNA replicon with a stable luciferase (Luc) reporter and three cell culture-adaptive mutations. […]
The ET cell line was grown in Dulbecco's modified essential media (DMEM), 10% fetal bovine serum (FBS), 1% penicillin-streptomycin (pen-strep), 1% glutamine, 250 μg/ml G418 in a 5% CO2 incubator at 37° C. All cell culture reagents were obtained from Mediatech (Manassas, Va.). Cells were trypsinized (1% trypsin:EDTA) and plated out at 5×10^3 cells/well in white 96-well assay plates (Costar) dedicated to cell number (cytotoxicity) or antiviral activity assessments. Drugs were added at six 3-fold concentrations each and the assay was run in DMEM, 5% FBS, 1% pen-strep, 1% glutamine. Human interferon alpha-2b (PBL Biolabs, New Brunswick, N.J.) was included in each run as a positive control compound. Cells were processed 72 hr post drug addition when the cells are still subconfluent. Antiviral activity was measured by analyzing replicon-derived luciferase activity using the Steady-Glo Luciferase Assay System (Promega, Madison, Wis.) according to manufacturer's instruction. The number of cells in each well was determined by CytoTox-1 reagent (Promega). […].

[9] = Replicon, assay of Example 22, 72 hr, read-out: Inhibition, Replicon
[10] = assay described in Example 22, read-out: Replicon (IC50)

Compound | pIC50 [1] | IC90 ([2]; assay described in Example 22) [nM] | pIC50 [2, 9] | pIC50 [2, 10] | pIC50 [3] | pIC50 [4] | pIC50 [5] | pIC50 [6] | pIC50 [7] | Inhibition, Cytotoxicity [8]
C=CC(=O)N(C)CC[C@H](NC(=O)OC(C)(C)C)C(=O)N1C[C@H](Oc2cc(-c3ccccc3)nc3cc(OC)ccc23)C[C@H]1C(=O)N[C@]1(C(=O)NS(=O)(=O)c2ccccc2)C[C@H]1C=C [Compound I-12, (2S)-2-[[(1,1-dimethylethoxy)carbonyl]amino]-4-(2-propenoyl)methylamino-butanoyl-(4R)-4-[(7-methoxy-2-phenyl-4-quinolinyl)oxy]-L-prolyl-1-amino-2-ethenyl-N-(phenylsulfonyl)-(1R,2S)-cyclopropanecarboxamide] | 7.00 to 8.00 | 100 to 1000 | 7.00 to 8.00 | 7.00 to 8.00 | 5.00 to 6.00 | 5.00 to 6.00 | > 8.00 | 7.00 to 8.00 | > 8.00 | D (IC50>1000 nM and <10,000 nM)
C=C[C@@H]1C[C@]1(NC(=O)[C@@H]1C[C@@H](Oc2cc(-c3ccccc3)nc3cc(OC)ccc23)CN1C(=O)[C@H](CNC(=O)C(C)Br)NC(=O)OC(C)(C)C)C(=O)NS(=O)(=O)c1ccccc1 (stereo partly drawn) [Compound I-22, tert-butyl(S)-3-(2-bromopropanamido)-1-((2S,4R)-4-(7-methoxy-2-phenylquinolin-4-yloxy)-2-((1R,2S)-1-(phenylsulfonylcarbamoyl)-2-vinylcyclopropylcarbamoyl)pyrrolidin-1-yl)-1-oxopropan-2-ylcarbamate] | 7.00 to 8.00 | > 10000 | 6.00 to 7.00 | 6.00 to 7.00 | 5.00 to 6.00 | 5.00 to 6.00 | > 8.00 | 7.00 to 8.00 | > 8.00 | D (IC50>1000 nM and <10,000 nM)
C=CC(=O)N(C)C[C@H](NC(=O)OC(C)(C)C)C(=O)N1C[C@H](Oc2cc(-c3ccccc3)nc3cc(OC)ccc23)C[C@H]1C(=O)N[C@]1(C(=O)NS(=O)(=O)c2ccccc2)C[C@H]1C=C [Compound I-28, tert-butyl-(S)-1-((2S,4R)-4-(7-methoxy-2-phenylquinolin-4-yloxy)-2-((1R,2S)-1-(phenylsulfonylcarbamoyl)-2-vinylcyclopropylcarbamoyl)pyrrolidin-1-yl)-3-(N-methylacrylamido)-1-oxopropan-2-ylcarbamate] | 7.00 to 8.00 | 100 to 1000 | > 8.00 | 7.00 to 8.00 | 5.00 to 6.00 | 5.00 to 6.00 | > 8.00 | 6.00 to 7.00 | > 8.00 | D (IC50>1000 nM and <10,000 nM)
C=C[C@@H]1C[C@]1(NC(=O)[C@@H]1C[C@@H](Oc2cc(-c3ccccc3)nc3cc(OC)ccc23)CN1C(=O)[C@H](CN(C)C(=O)[C@H](Cl)c1ccccc1)NC(=O)OC(C)(C)C)C(=O)NS(=O)(=O)c1ccccc1 [Compound I-33, tert-butyl-(2S)-3-(2-chloro-N-methyl-2-phenylacetamido)-1-((2S,4R)-4-(7-methoxy-2-phenylquinolin-4-yloxy)-2-((1R,2S)-1-(phenylsulfonylcarbamoyl)-2-vinylcyclopropylcarbamoyl)pyrrolidin-1-yl)-1-oxopropan-2-ylcarbamate] | 6.00 to 7.00 | 10 to 100 | > 8.00 | > 8.00 | 5.00 to 6.00 | 5.00 to 6.00 | > 8.00 | 6.00 to 7.00 | > 8.00 | E (IC50≧10,000 nM)
C=CC(=O)NC[C@H](NC(=O)OC(C)(C)C)C(=O)N1C[C@H](Oc2cc(-c3ccccc3)nc3cc(OC)ccc23)C[C@H]1C(=O)N[C@]1(C(=O)NS(=O)(=O)C2CC2)C[C@H]1C=C [Compound I-35, tert-butyl-(S)-3-acrylamido-1-((2S,4R)-2-((1R,2S)-1-(cyclopropylsulfonylcarbamoyl)-2-vinylcyclopropylcarbamoyl)-4-(7-methoxy-2-phenylquinolin-4-yloxy)pyrrolidin-1-yl)-1-oxopropan-2-ylcarbamate] | > 8.00 | 100 to 1000 | > 8.00 | 7.00 to 8.00 | 6.00 to 7.00 | 6.00 to 7.00 | > 8.00 | > 8.00 | > 8.00 | C (IC50>100 nM and ≦1000 nM)
C=CC(=O)NCC(=O)N1C[C@H](Oc2cc(-c3ccccc3)nc3cc(OC)ccc23)C[C@H]1C(=O)N[C@]1(C(=O)NS(=O)(=O)C2CC2)C[C@H]1C=C [Compound I-39, (2S,4R)-1-(2-acrylamidoacetyl)-N-((1R,2S)-1-(cyclopropylsulfonylcarbamoyl)-2-vinylcyclopropyl)-4-(7-methoxy-2-phenylquinolin-4-yloxy)pyrrolidine-2-carboxamide] | > 8.00 | 100 to 1000 | 7.00 to 8.00 | 7.00 to 8.00 | 7.00 to 8.00 | 6.00 to 7.00 | > 8.00 | > 8.00 | > 8.00 | C (IC50>100 nM and ≦1000 nM)
C=CC(=O)N[C@H](C)C(=O)N1C[C@H](Oc2cc(-c3ccccc3)nc3cc(OC)ccc23)C[C@H]1C(=O)N[C@]1(C(=O)NS(=O)(=O)c2ccccc2)C[C@H]1C=C [Compound I-46, (2S,4R)-1-((R)-2-acrylamidopropanoyl)-4-(7-methoxy-2-phenylquinolin-4-yloxy)-N-((1R,2S)-1-(phenylsulfonylcarbamoyl)-2-vinylcyclopropyl)pyrrolidine-2-carboxamide] | > 8.00 | < 10 | > 8.00 | > 8.00 | 7.00 to 8.00 | 6.00 to 7.00 | > 8.00 | > 8.00 | > 8.00 | C (IC50>100 nM and ≦1000 nM)
